Reference: patent publication US20110046056A1, “APOA-1 PEPTIDE MIMETICS” (priority 2007, published 2011)
Like-named read-outs stand apart in the source and are kept apart here. *1 amine or outer side, *2 acyl side, *3 side chain or, on linkers, in order; H or OH if unused. Where a SMILES comes first, the peptide text is derived from it. Bridges are numbered along the chain shown (N, C = ends). Where no end group is shown, it is not given here. [ ]: non-standard residue; d: D form. S6H = (2S)-2-aminooct-7-enoic acid, C=CCCCC[C@H](N[*:1])C(=O)[*:2]; R5Me = hydrocarbon side chain-substituted amino acid; dNle(6-ylidene) = O=C([C@@H](CCCC=[*:3])N[*:1])[*:2]; dGly(6-heptenyl) = C=CCCCCC[C@@H](N)C(=O)O; Ala(5-hexenyl) = C=CCCCCC[C@H](N)C(=O)O; dNle(6-vinyl) = C=CCCCC[C@@H](N)C(=O)O; Gla = N[C@@H](CC(C(=O)O)C(=O)O)C(=O)O; X6 = CCCCCCC[C@H](N[*:1])C(=O)[*:2]

Legend:
[1] = Lipid (liposome) solubilization, turbidimetric method; format: biochemical
Procedure: As noted above, the other important parameter was phospholipid solubilization. A turbidimetric method is used to determine the solubilization capacity of peptides of the present invention. First, a three-fold serial titration of the peptide is prepared in a polypropylene v-shaped 96-well plate. The eight-point titration is done in phosphate-buffered saline (PBS, pH 7.5) or DMSO from a starting concentration that allows for addition to an optically-clear bottomed assay plate in <100 μl aliquots to yield a starting concentration of 500 μM in 200 μl final well volume. PBS is then added to each well to bring the total volume to 100 μl. Any bubbles in the wells must be dispersed to avoid erroneous results. Next, from a turbid but homogeneous emulsion of dimyristoyl phosphatidylcholine at 0.5 mg/ml in PBS, 100 μl is added to each well in the assay plate, the plate is inserted into the NEPHELOSTAR (BMG LABTECH INSTRUMENTS), and readings are taken immediately and every 15 minutes over 2 hours.
A true 0-point value is calculated by averaging the readings of the wells with phospholipid but no peptide. For each peptide concentration, a percent decrease in turbidity is calculated by subtracting the 0-point value from the corresponding 30 and 120 minute readings and dividing by that 0-point value. Finally the EC50 values for both time points are determined using PRISM software (Table 2).

[2] = molecular target: T1, ABCA1 cholesterol transporter protein (Mus musculus, UniProt P41233); assay: ABCA1-dependent cholesterol efflux from RAW mouse macrophage cells (in vitro RCT assay); format: cell-based
T1 construct: endogenous in cells
From the text: Peptides of the present invention were designed based on amphipathic properties and their abilities to solubilize phospholipids and promote cholesterol efflux. The most direct functional measurement of efficacy for the ApoA-1 peptide mimetic is its capacity to improve the efflux of cholesterol from the cell. The RAW and J774 cell lines are reliable mouse macrophage cell lines frequently used in the art for this purpose. […] The RAW cell line is preferred and recited in the description below.
In the present assay, the RAW cells are plated at 1.5×10^5 cells/200 μl/well/48-well plate in DMEM complete medium (with 10% FBS from INVITROGEN and 1% penicillin-streptomycin-glutamine from GIBCO) and ^3H-cholesterol at 5 μCi/ml. After 24 hours incubation in a moist 37° C. atmosphere with 5% CO2, the spent medium is removed, the cells are washed once with serum-free DMEM (0.1% fatty acid free bovine serum albumin replaces the FBS), and fresh serum-free medium (200 μl) is added to each well. After overnight incubation in the serum-free medium to allow the cellular cholesterol pools to equilibrate, the spent medium is removed, and fresh serum-free medium is added with/without CPT-cAMP (150 μM final). Eight-point serial titrations of the peptide/s being tested are added at this time (duplicate titrations in plain medium without cAMP and duplicate titrations in medium containing cAMP).
After 24 hours incubation in the various conditions, the medium is harvested from each well and 50 μl aliquots are counted. The cells are then lysed by adding 500 μl of HEPES/Triton lysis buffer to each well. The lysis is facilitated by freezing and thawing once. After thawing, the lysates are mixed well and 50 μl aliquots are counted.
The percent efflux of each peptide in each medium condition (±cAMP) is calculated by dividing the total counts in the medium by the sum of the total counts in the medium and lysate. The percent efflux seen with plain medium is subtracted from the percent efflux seen with the cAMP-stimulated efflux to yield the reported ABCA1-stimulated values. EC50 values are determined using PRISM software (Table 2).

[3] = read-out: IC50 in the liposome solubilization assay
[4] = read-out: EC50 in the cholesterol efflux assay (RCT in vitro assay)
[5] = read-out: ABCA1-DEPENDENT CHOLESTEROL EFFLUX EC50

T1 sequence (P41233 whole entry): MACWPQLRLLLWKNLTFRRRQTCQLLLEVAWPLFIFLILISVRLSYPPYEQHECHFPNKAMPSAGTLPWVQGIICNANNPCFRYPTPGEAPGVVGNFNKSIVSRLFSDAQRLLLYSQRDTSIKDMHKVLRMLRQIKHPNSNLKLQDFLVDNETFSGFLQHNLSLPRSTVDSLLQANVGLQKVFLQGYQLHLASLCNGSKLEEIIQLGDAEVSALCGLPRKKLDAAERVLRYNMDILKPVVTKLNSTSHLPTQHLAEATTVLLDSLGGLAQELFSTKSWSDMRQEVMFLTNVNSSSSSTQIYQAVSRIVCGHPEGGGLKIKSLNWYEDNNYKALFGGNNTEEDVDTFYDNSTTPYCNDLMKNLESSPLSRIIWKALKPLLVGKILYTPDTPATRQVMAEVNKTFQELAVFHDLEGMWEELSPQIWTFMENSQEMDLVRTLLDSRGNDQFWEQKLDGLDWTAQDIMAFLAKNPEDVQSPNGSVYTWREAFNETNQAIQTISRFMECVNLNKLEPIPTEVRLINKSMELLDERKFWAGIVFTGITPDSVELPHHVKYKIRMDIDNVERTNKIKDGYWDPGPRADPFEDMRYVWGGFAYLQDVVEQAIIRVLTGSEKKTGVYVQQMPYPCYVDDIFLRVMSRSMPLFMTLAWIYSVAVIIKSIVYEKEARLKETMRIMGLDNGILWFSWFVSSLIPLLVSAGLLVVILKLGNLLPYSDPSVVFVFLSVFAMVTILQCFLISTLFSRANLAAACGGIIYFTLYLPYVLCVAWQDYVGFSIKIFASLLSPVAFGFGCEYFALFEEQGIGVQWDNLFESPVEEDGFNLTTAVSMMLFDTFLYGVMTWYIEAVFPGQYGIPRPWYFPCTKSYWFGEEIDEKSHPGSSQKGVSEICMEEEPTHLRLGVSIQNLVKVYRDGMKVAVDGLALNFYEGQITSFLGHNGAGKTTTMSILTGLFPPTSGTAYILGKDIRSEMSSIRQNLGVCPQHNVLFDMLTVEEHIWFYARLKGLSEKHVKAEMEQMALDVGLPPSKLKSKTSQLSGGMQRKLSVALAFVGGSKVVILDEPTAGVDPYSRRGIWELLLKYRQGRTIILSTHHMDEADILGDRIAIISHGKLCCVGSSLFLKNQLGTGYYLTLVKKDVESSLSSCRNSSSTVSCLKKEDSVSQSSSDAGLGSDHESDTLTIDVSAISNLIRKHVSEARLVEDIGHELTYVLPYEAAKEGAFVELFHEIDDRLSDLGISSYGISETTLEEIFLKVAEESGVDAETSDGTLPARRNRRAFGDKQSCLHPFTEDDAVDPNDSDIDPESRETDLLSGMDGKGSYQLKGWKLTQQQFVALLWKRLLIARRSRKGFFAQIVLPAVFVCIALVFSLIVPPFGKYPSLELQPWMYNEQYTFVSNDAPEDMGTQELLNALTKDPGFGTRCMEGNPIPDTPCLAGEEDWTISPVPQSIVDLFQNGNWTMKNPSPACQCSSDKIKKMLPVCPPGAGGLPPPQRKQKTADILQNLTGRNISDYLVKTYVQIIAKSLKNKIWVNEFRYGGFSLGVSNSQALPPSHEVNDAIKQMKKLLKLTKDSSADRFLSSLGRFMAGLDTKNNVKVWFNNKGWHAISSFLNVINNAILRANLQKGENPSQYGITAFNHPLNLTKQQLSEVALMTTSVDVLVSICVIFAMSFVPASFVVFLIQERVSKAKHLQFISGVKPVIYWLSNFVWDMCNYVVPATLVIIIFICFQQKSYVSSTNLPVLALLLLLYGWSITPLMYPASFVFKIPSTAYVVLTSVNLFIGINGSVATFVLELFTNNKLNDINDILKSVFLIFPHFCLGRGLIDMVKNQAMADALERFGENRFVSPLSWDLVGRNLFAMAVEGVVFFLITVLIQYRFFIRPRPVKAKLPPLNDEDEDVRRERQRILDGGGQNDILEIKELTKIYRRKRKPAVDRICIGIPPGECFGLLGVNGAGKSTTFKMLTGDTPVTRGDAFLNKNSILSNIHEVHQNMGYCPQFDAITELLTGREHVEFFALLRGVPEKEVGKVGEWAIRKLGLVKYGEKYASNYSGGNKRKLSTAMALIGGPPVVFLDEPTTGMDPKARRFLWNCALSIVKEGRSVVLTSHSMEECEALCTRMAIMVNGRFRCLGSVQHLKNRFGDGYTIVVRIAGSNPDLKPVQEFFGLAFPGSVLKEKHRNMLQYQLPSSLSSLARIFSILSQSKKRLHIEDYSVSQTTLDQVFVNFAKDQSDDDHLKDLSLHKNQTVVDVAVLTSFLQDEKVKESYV

Question: Which IC50 ([1]; Measured at 2 h, read-out: LIPID SOLUBILIZATION IC50) does the source give for “16 (Ac-PVLDEFRE[R5Me]LNE[R5Me]LEALKQKLK; not fully specified (C-terminus)) [compound 16]” here?
Answer: 24 µM

Question: With `C=CCCC[C@@H](NC(=O)[C@H](CCC(=O)O)NC(=O)[C@H](CC(N)=O)NC(=O)[C@H](CC(C)C)NC(=O)[C@@H](CCCC=C)NC(=O)[C@H](CCC(=O)O)NC(=O)[C@H](CCCNC(=N)N)NC(=O)[C@H](Cc1ccccc1)NC(=O)[C@H](CCC(=O)O)NC(=O)[C@H](CC(=O)O)NC(=O)[C@H](CC(C)C)NC(=O)[C@@H](NC(=O)[C@@H]1CCCN1C(C)=O)C(C)C)C(=O)N[C@@H](CC(C)C)C(=O)N[C@@H](CCC(=O)O)C(=O)N[C@@H](C)C(=O)N[C@@H](CC(C)C)C(=O)N[C@@H](CCCCN)C(=O)N[C@@H](CCC(N)=O)C(=O)N[C@@H](CCCCN)C(=O)N[C@@H](CC(C)C)C(=O)N[C@@H](CCCCN)C(N)=O` [SEQ ID NO 9, PVLDEFRER5HLNER5HLEALKQKLK] (Ac-PVLDEFRE[dNle(6-ylidene)]LNE[dNle(6-ylidene)]LEALKQKLK-NH2; C-terminus assumed) as the compound, how does the IC50 [1, 3] read?
Answer: 91 µM

Question: With `C=CCCCCC[C@H](NC(=O)[C@H](CCC(=O)O)NC(=O)[C@H](CC(N)=O)NC(=O)[C@H](CC(C)C)NC(=O)[C@H](CCCCN)NC(=O)[C@H](CCC(=O)O)NC(=O)[C@H](CCCNC(=N)N)NC(=O)[C@@H](CCCCC=C)NC(=O)[C@H](CCC(=O)O)NC(=O)[C@H](CC(=O)O)NC(=O)[C@H](CC(C)C)NC(=O)[C@@H](NC(=O)[C@@H]1CCCN1C(C)=O)C(C)C)C(=O)N[C@@H](CC(C)C)C(=O)N[C@@H](CCC(=O)O)C(=O)N[C@@H](C)C(=O)N[C@@H](CC(C)C)C(=O)N[C@@H](CCCCN)C(=O)N[C@@H](CCC(N)=O)C(=O)N[C@@H](CCCCN)C(=O)N[C@@H](CC(C)C)C(=O)N[C@@H](CCCCN)C(N)=O` [SEQ ID NO 13, PVLDER6HREKLNES7HLEALKQKLK] (Ac-PVLDE[dNle(6-vinyl)]REKLNE[Ala(5-hexenyl)]LEALKQKLK-NH2; C-terminus assumed) as the compound, how does the IC50 [1, 3] read?
Answer: 25 µM

Question: Which EC50 [2, 4] does the source give for `C=CCCCCC[C@H](NC(=O)[C@H](CCC(=O)O)NC(=O)[C@H](CC(N)=O)NC(=O)[C@H](CC(C)C)NC(=O)[C@H](CCCCN)NC(=O)[C@H](CCC(=O)O)NC(=O)[C@H](CCCNC(=N)N)NC(=O)[C@H](Cc1ccccc1)NC(=O)[C@H](CCC(=O)O)NC(=O)[C@H](CC(=O)O)NC(=O)[C@H](CC(C)C)NC(=O)[C@@H](NC(=O)[C@@H]1CCCN1C(C)=O)C(C)C)C(=O)N[C@@H](CC(C)C)C(=O)N[C@@H](CC(C(=O)O)C(=O)O)C(=O)N[C@@H](C)C(=O)N[C@@H](CC(C)C)C(=O)N[C@@H](CCCCN)C(=O)N[C@@H](CCC(N)=O)C(=O)N[C@@H](CCCCN)C(=O)N[C@@H](CC(C)C)C(=O)N[C@@H](CCCCN)C(N)=O` [SEQ ID NO 47, PVLDEFREKLNES7HL-GLA-ALKQKLK] (Ac-PVLDEFREKLNE[Ala(5-hexenyl)]L[Gla]ALKQKLK-NH2; C-terminus assumed) here?
Answer: 0.7 µM

Question: Which EC50 [2, 4] does the source give for `CCCCCCC[C@H](NC(=O)[C@H](CCC(=O)O)NC(=O)[C@H](CC(N)=O)NC(=O)[C@H](CC(C)C)NC(=O)[C@H](CCCCN)NC(=O)[C@H](CCC(=O)O)NC(=O)[C@H](CCCNC(=N)N)NC(=O)[C@H](CCCCCCC)NC(=O)[C@H](CCC(=O)O)NC(=O)[C@H](CC(=O)O)NC(=O)[C@H](CC(C)C)NC(=O)[C@@H](NC(=O)[C@@H]1CCCN1C(C)=O)C(C)C)C(=O)N[C@@H](CC(C)C)C(=O)N[C@@H](CCC(=O)O)C(=O)N[C@@H](C)C(=O)N[C@@H](CC(C)C)C(=O)N[C@@H](CCCCN)C(=O)N[C@@H](CCC(N)=O)C(=O)N[C@@H](CCCCN)C(=O)N[C@@H](CC(C)C)C(=O)N[C@@H](CCCCN)C(N)=O` [SEQ ID NO 50, PVLDES7H3REKLNES7H3LEALKQKLK] (Ac-PVLDE[X6]REKLNE[X6]LEALKQKLK-NH2; C-terminus assumed) here?
Answer: 0.3 µM

Question: With `C=CCCC[C@@H](NC(=O)[C@H](CCC(=O)O)NC(=O)[C@H](CC(N)=O)NC(=O)[C@H](CC(C)C)NC(=O)[C@@H](CCCC=C)NC(=O)[C@H](CCC(=O)O)NC(=O)[C@H](CCCNC(=N)N)NC(=O)[C@H](Cc1ccccc1)NC(=O)[C@H](CCC(=O)O)NC(=O)[C@H](CC(=O)O)NC(=O)[C@H](CC(C)C)NC(=O)[C@@H](NC(=O)[C@@H]1CCCN1C(C)=O)C(C)C)C(=O)N[C@@H](CC(C)C)C(=O)N[C@@H](CCC(=O)O)C(=O)N[C@@H](C)C(=O)N[C@@H](CC(C)C)C(=O)N[C@@H](CCCCN)C(=O)N[C@@H](CCC(N)=O)C(=O)N[C@@H](CCCCN)C(=O)N[C@@H](CC(C)C)C(=O)N[C@@H](CCCCN)C(N)=O` [compound 9] (Ac-PVLDEFRE[dNle(6-ylidene)]LNE[dNle(6-ylidene)]LEALKQKLK-NH2; C-terminus assumed) as the compound, how does the EC50 [2, 5] read?
Answer: 46 µM

Question: With `C=CCCCCC[C@H](NC(=O)[C@H](CCC(=O)O)NC(=O)[C@H](CC(=O)O)NC(=O)[C@H](CC(C)C)NC(=O)[C@@H](NC(=O)[C@@H]1CCCN1C(C)=O)C(C)C)C(=O)N[C@@H](CCCNC(=N)N)C(=O)N[C@@H](CCC(=O)O)C(=O)N[C@@H](CCCCN)C(=O)N[C@@H](CC(C)C)C(=O)N[C@@H](CC(N)=O)C(=O)N[C@@H](CCC(=O)O)C(=O)N[C@H](CCCCC=C)C(=O)N[C@@H](CC(C)C)C(=O)N[C@@H](CCC(=O)O)C(=O)N[C@@H](C)C(=O)N[C@@H](CC(C)C)C(=O)N[C@@H](CCCCN)C(=O)N[C@@H](CCC(N)=O)C(=O)N[C@@H](CCCCN)C(=O)N[C@@H](CC(C)C)C(=O)N[C@@H](CCCCN)C(N)=O` [compound 10] (Ac-PVLDE[Ala(5-hexenyl)]REKLNE[dNle(6-vinyl)]LEALKQKLK-NH2; C-terminus assumed) as the compound, how does the EC50 [2, 5] read?
Answer: 1.3 µM

Question: For `CC(=O)N1CCC[C@H]1C(=O)N[C@H](C(=O)N[C@@H](CC(C)C)C(=O)N[C@@H](CC(=O)O)C(=O)N[C@@H](CCC(=O)O)C(=O)N[C@@H](Cc1ccccc1)C(=O)N[C@@H](CCCNC(=N)N)C(=O)N[C@@H](CCC(=O)O)C(=O)N[C@@H]1CCCC=CCCC[C@H](C(=O)N[C@@H](CC(C)C)C(=O)N[C@@H](CCC(=O)O)C(=O)N[C@@H](C)C(=O)N[C@@H](CC(C)C)C(=O)N[C@@H](CCCCN)C(=O)N[C@@H](CCC(N)=O)C(=O)N[C@@H](CCCCN)C(=O)N[C@@H](CC(C)C)C(=O)N[C@@H](CCCCN)C(N)=O)NC(=O)[C@H](CCC(=O)O)NC(=O)[C@H](CC(N)=O)NC(=O)[C@H](CC(C)C)NC1=O)C(C)C` [compound 12] (Ac-PVLDEFRE[dNle(6-ylidene)]LNE[dNle(6-ylidene)]LEALKQKLK-NH2; staple 9-13; C-terminus assumed), which EC50 [2, 5] is on record?
Answer: 10 µM

Question: With “Ac-PVLDEFREKLNE[Ala(5-hexenyl)]LEALKQKLKPVLDEFREKLNE[Ala(5-hexenyl)]LEALKQKLK-NH2 (C-terminus assumed) [SEQ ID NO 63]” as the compound, how does the EC50 [2, 4] read?
Answer: 41 µM

Question: Which “activity in the cholesterol efflux / in vitro RCT assay, in words” value [2] does the source give for “PR7HLDEFREKLNEELEALKQKLK (Ac-P[dGly(6-heptenyl)]LDEFREKLNEELEALKQKLK; not fully specified (C-terminus)) [SEQ ID NO 20]” here?
Answer: only slightly active

Question: Which “activity in the cholesterol efflux / in vitro RCT assay, in words” value [2] does the source give for “PS6HLDEFREKLNEELEALKQKLK (Ac-P[S6H]LDEFREKLNEELEALKQKLK; not fully specified (C-terminus)) [SEQ ID NO 23]” here?
Answer: only slightly active

Question: Which “activity in the cholesterol efflux / in vitro RCT assay, in words” value [2] does the source give for “PVLDEFREKLNEELEALKQR7HLK (Ac-PVLDEFREKLNEELEALKQ[dGly(6-heptenyl)]LK; not fully specified (C-terminus); printed as PVLDEFREKLNEELEALKQR7HLK) [SEQ ID NO 22]” here?
Answer: only slightly active

Question: With “PVLDEFREKLNEELEALKQS6HLK (Ac-PVLDEFREKLNEELEALKQ[S6H]LK; not fully specified (C-terminus); printed as PVLDEFREKLNEELEALKQS6HLK) [SEQ ID NO 25]” as the compound, how does the “activity in the cholesterol efflux / in vitro RCT assay, in words” value [2] read?
Answer: only slightly active
